# Results as given in US8574856B2, “Methods for determining the efficiency of a therapeutic” (Companion Diagnostics Inc., priority 2010, dated 2013).
# “And” between values parts separate entries of the source, which are not always exact repeats. Identical values can stand only once.
# Assays:
# [1] = molecular target: T1, α-amylase (Homo sapiens, UniProt P0DUB6); conditions: 100% saliva samples; FIG. 15
# T1 sequence (P0DUB6 16-511): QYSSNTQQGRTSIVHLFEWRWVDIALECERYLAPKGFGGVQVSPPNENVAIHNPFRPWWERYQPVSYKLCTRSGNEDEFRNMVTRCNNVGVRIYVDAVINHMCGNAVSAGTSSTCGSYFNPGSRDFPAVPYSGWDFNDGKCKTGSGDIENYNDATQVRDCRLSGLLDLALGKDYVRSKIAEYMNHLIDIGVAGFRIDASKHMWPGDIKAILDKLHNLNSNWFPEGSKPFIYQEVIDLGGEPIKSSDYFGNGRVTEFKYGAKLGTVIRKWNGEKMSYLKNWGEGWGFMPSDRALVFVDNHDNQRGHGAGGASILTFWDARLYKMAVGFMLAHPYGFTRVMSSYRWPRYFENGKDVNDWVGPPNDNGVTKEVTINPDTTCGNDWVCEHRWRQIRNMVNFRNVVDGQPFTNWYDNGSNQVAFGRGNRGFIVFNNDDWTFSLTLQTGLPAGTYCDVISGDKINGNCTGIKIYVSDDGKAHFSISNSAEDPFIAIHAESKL
# Text: Enzymatic activity of α-amylase on the substrate yields 2-chloro-p-nitrophenol, which can be measured spectrophotometrically at 405 nm. The amount of α-amylase activity present in the experimental sample is directly proportional to the increase in absorbance at 405 nm.
# [2] = molecular target: T1, α-amylase; experiment: α-Amylase inhibition saliva screening, dilute (3.5%) saliva; format: biochemical; conditions: for absorbance at 405 nm, Ave / absorbance at 405 nm, single readings: test compound prepared at 5,000 ppm, 37° C.; for α-Amylase Inhibitor Activity: dilute (3.5%) saliva, FIG. 14
# Text: Further details of these five compounds may also be seen in Table 4.
# [3] = test system: galactose oxidase; conditions: dilute (3.5%) saliva; FIG. 17
# [4] = test system: peroxidase; experiment: Peroxidase assay in saliva (Amplex Red); format: biochemical; conditions: 500 ppm; pooled or unpooled saliva; 30 minutes; FIGS. 30-33
# Method: To determine the effect of various GRAS compounds as inhibitors of peroxidase activity, a standard assay using Amplex® Red (Life Technologies), which releases a fluorescent oxidation product.
# The test compounds, such as GRAS materials or cocktails of same, were prepared at a concentration of 500 ppm in distilled water. For the assay, 50 μl samples of test compounds were mixed with 20-30 μl of saliva (either “pooled” or “unpooled”) prior to the addition of Amplex® Red. […] Reactions were allowed to run for 30 minutes during these assays.
# [5] = molecular target: T2, lysozyme (Homo sapiens, UniProt P61626); experiment: Lysozyme inhibition saliva screening, dilute (3.5%) saliva; format: biochemical; conditions: FIG. 16
# T2 sequence (P61626 19-148): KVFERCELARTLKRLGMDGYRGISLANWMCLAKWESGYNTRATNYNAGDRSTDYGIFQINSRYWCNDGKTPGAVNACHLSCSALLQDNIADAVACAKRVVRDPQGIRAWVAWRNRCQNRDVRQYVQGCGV
# Text: Further details of these five compounds may also be seen in Table 5.
Compound,inhibition of α-Amylase [1],"absorbance at 405 nm, Ave ([2]; 0 min)","absorbance at 405 nm, Ave ([2]; 5 min)","absorbance at 405 nm, Ave ([2]; 15 min)",α-Amylase Inhibitor Activity [2],Galactose Oxidase Inhibitor Activity [3],peroxidase inhibition [4],Lysozyme Inhibitor Activity [5],further results
Aluminum sulfate hydrate [CDI-34],shown to inhibit α-Amylase,0.40,0.50,0.56,shown to have α-Amylase Inhibitor Activity,,,,"absorbance at 405 nm, single readings ([2]; 0 min, sulfate hydrate): 0.40 and 0.36 and 0.45; absorbance at 405 nm, single readings ([2]; 5 min, sulfate hydrate): 0.49 and 0.50 and 0.52; absorbance at 405 nm, single readings ([2]; 15 min, sulfate hydrate): 0.53 and 0.61 and 0.54 and 0.56"
Aluminum potassium sulfate dodecahydrate [CDI-42],shown to inhibit α-Amylase,0.92,1.85,2.29,shown to have α-Amylase Inhibitor Activity,shown to have Galactose Oxidase Inhibitor Activity,showed significant peroxidase inhibition capabilities,,"absorbance at 405 nm, single readings ([2]; 0 min): 0.80 and 0.90 and 0.84; absorbance at 405 nm, single readings ([2]; 5 min): 1.80"
"COc1ccc(O)c(C(C)(C)C)c1 [CDI-39, 3-tert--butyl-hydroxyanisole]",,,,,,shown to have Galactose Oxidase Inhibitor Activity,showed significant peroxidase inhibition capabilities,,
"Cn1c(=O)c2c(ncn2C)n(C)c1=O [CDI-33, Caffeine]",,,,,,,showed significant peroxidase inhibition capabilities,,
"CC(=O)O [CDI-47, Acetic acid]",,,,,,shown to have Galactose Oxidase Inhibitor Activity,,shown to have Lysozyme Inhibitor Activity,
"O=C(O)c1ccccc1 [CDI-40, Benzoic acid]",,,,,,shown to have Galactose Oxidase Inhibitor Activity,,shown to have Lysozyme Inhibitor Activity,
